Series [1] can be described thus: Solubility in water, buffer pH 4.5 and ethanol (UPLC). The format is physicochemical. Conditions: for solubility at 1 h: thermodynamic from solid. On the procedure: An excess amount of CUR-2GE (2 mg) was added to 2 mL of three solvents, water, phosphate buffer pH 4.5 and ethanol. The samples were sonicated at 25°C for 1 h and then placed on an orbital shaker at 100 rpm at 25°C for 1 h. The obtained mixture was then centrifuged at 25°C at 14,000 rpm for 10 min [37, 38]. The supernatant was analyzed using UPLC and the solubility of CUR-2GE in each medium was determined. Experiments were performed in triplicate. The solubility category was classified according to USP [39]. The percentage of CUR-2GE in the undissociated form at various pH values was calculated based on the Henderson-Hasselbalch equation [40] (see S1 Appendix).
S1 Appendix. Experimental procedures
The solubility category was classified according to USP [1] as very soluble (>1000 mg/mL), freely soluble (100-1000 mg/mL), soluble (33-100 mg/mL), sparingly soluble (10-33 mg/mL), slightly soluble (1-10 mg/mL), very slightly soluble (0.1-1 mg/mL) and practically […]
The percentage of CUR-2GE in the undissociated form at various pH values were calculated based on Henderson-Hasselbalch using Eq. 1:
%Undissociated form = 100 - antilog (pH-pKa) x 100 (1)
Where pH; pH value of the medium for solubilization, pKa; negative logarithm of the dissociation constant (Ka) of CUR-2GE with computed using the Marvin (Product version: 21.8.0) of ChemAxon (Budapest, Hungary) (http://www.chemaxon.com) accessed on June 2021. […]

A short description of series [2]: Partition coefficient, shake flask method (OECD 107). Conditions: 25°C, aqueous phase not detectable, LOQ of 0.05 μg/mL used for calculation. It is filed as physicochemical. On the procedure: The partition coefficient of CUR-2GE was quantified using the shake flask method according to the guideline of OECD 107 with some modifications. A saturated mixture of n-octanol/water was firstly prepared at 25°C by stirring an equal volume of n-octanol/water for 24 h and left standing until complete separation. A 1 mg of CUR-2GE was dissolved in saturated n-octanol and water at volume ratios of 1:1, 1:2 and 2:1 in screw cap tubes. Experiments were run in duplicate. The tube was shaken through 180° over the transverse axis approximately 100 times in 5 min at room temperature (25°C) to reach equilibrium and phase distribution. The phases were then separated by centrifugation at 25°C at 5,500 rpm for 10 min. […] CUR-2GE concentrations in each phase were analyzed by UPLC, and the Po/w value was determined. In addition to water used as an aqueous phase, the partition coefficient between n-octanol and buffer at pH 4.5 and the Po/buffer pH 4.5 value were determined (see S1 Appendix).
The Po/w value and Po/buffer pH 4.5 value were calculated by Eq. 3 and Eq. 4, respectively. The Log Po/w and Log Po/buffer pH 4.5 were evaluated from the average results (n = 6) from three solvent ratios, where the results fall within the range of variation of ± 0.3 units. […]
The half-lives (t1/2) of CUR-2GE were calculated by Eq. 6: […]

For series [3], the system named is BV-2 microglial cells. Nature of the series: Cytotoxicity (MTT assay). Conditions: BV-2 cells, 24 h. It is filed as cell-based, murine. On the procedure:
BV-2 microglial cells were cultured in DMEM supplemented with 10% fetal bovine serum, 2 mM L-glutamine, 1% penicillin/streptomycin (100 units/mL penicillin and 100 μg/mL streptomycin) at 37°C in 5% CO2. BV-2 microglial cells were plated in a 24-well plate at a density of 2 × 10^5 cells/well for 24 h. Various concentrations at 0, 1.25, 2.5, 5, 10, or 20 μM of curcumin or CUR-2GE were determined for a non-toxic concentration. After 24 h, cell viability was assessed by an MTT assay. The media was removed and replaced with an MTT solution in PBS (0.5 mg/mL). After 3-h incubation, the MTT solution was discarded, and formazan crystals formed after the reaction was dissolved in DMSO. The absorbance was then read at 540 nm using a microplate reader (CLARIOstar®, BMG Labtech, Ortenberg, Germany). The percentage of cell viability was expressed relative to the control cells. In addition, the cell viability of BV-2 microglial cells treated with LPS and a combination of LPS and the test compounds was also determined.
Background: Formazan colour is commonly taken as a measure of viable cells.

The subject of series [4] is BV-2 microglial cells. Nature of the series: In vitro cellular uptake (fluorescence microscopy). It is filed as cell-based, murine. The following applies: BV-2 cells, 4-h incubation, 20 μM and 100 μM, compared with curcumin. On the procedure: BV-2 microglial cells were plated in a 96-well plate (Costar, NY, USA) at a density of 10,000 cells/well for 24 h. The cells were incubated in DMEM media without phenol red for 4 h in the presence of curcumin and CUR-2GE at concentrations of 20 μM and 100 μM. Then, the sample was washed with PBS and the fluorescence intensity was measured using a fluorescence microscope (Olympus IX51 inverted microscope, Tokyo, Japan).

For series [5], the system named is TNF-α release in LPS-stimulated BV-2 microglial cells. The series is described as follows: TNF-α ELISA. The format is cell-based, murine. The following applies: 10 μM, 12 h pre-incubation, then 1 μg/mL LPS 24 h; compared with curcumin. On the procedure: BV-2 microglial cells were plated in a 24-well plate at a density of 2 × 10^5 per well for 24 h. The cells were pre-incubated for 12 h with curcumin (10 μM), CUR-2GE (10 μM), medium (DMEM), or a vehicle (0.5% DMSO). The cells were then induced with 1 μg/mL LPS for 24 h. The culture medium samples were collected and analyzed for nitric oxide (NO) and cytokines (TNF- and IL-6) using NO and enzyme-linked immunoassay (ELISA) assays, respectively.
Quantification of TNF-α and IL-6 was performed using commercially available ELISA kits according to the manufacturer’s protocol (BioLegend, San Diego, CA, USA). The absorbance was measured at 450 nm using the microplate reader, and the amount of TNF-α and IL-6 was determined against their corresponding standard curves of TNF-α and IL-6.
(ELISA stands for enzyme-linked immunosorbent assay.)

Where [6] appears, read: 25°C, <LOQ refers to less than 0.05 μg/mL.

Converted amounts (≈) assume the structure as drawn. Read-outs that look alike come from different tables or passages of the source. Some results are limits rather than exact numbers.

As usually defined, the solubility is how much of the substance goes into solution per volume. Consider `CCOC(=O)CCCNC(=O)Oc1ccc(/C=C/C(=O)/C=C(O)/C=C/c2ccc(OC(=O)NCCCC(=O)OCC)c(OC)c2)cc1OC` [CUR-2GE, Curcumin diethyl γ-aminobutyrate], for which, in series [1] (setting [6]), the “Solubility, buffer pH 4.5” value is reported as “<LOQ”. Besides, the “Solubility, water” value in series [1] (setting [6]) is on record as “<LOQ”. For the same compound, the solubility at 1 h in series [1] (ethanol, organic solvent or mixture, 25°C, read-out: Solubility, ethanol) is 17.9 ± 1.76 µg/mL (≈ 26.1 µM); in series [1] (phosphate buffer pH 4.5, pH 4.5, aqueous buffer, 25°C, <LOQ refers to less than 0.05 μg/mL, read-out: Solubility, buffer pH 4.5) it was under 0.05 µg/mL; in series [1] (water, 25°C, <LOQ refers to less than 0.05 μg/mL, read-out: Solubility, water) it was under 0.05 µg/mL. Besides, in series [1] (in water, buffer pH 4.5 and ethanol, practically insoluble = <0.1 mg/mL), the USP solubility classification result is “practically insoluble”. Besides, the logP in series [2] (n-octanol/buffer pH 4.5, pH 4.5, read-out: Log P (Log Po/buffer pH 4.5), n-octanol/buffer pH 4.5) was 3.43 ± 0.14; in series [2] (n-octanol/water, read-out: Log P (Log Po/w), n-octanol/water) it was 3.57 ± 0.19. Further, in the series on BV-2 microglial cells [3], the “non-toxic concentrations (no cytotoxicity)” value was at most 10 µM. For the same compound, the “cellular uptake (fluorescence intensity)” value in the series with BV-2 microglial cells [4] is listed as “higher fluorescence intensity than curcumin”. Besides, in series [5], the “inhibition of TNF-α release” value is given as “to a greater extent than curcumin”.

Source of the values: PMC9048745, “Physicochemical investigation of a novel curcumin diethyl γ-aminobutyrate, a carbamate ester prodrug of curcumin with enhanced anti-neuroinflammatory activity” (PLoS ONE, 2022).
